Assay results published in US8557847B2, “Synergistic modulation of FLT3 kinase using a FLT3 inhibitor and a farnesyl transferase inhibitor” (Janssen Pharmaceutica, N.V., priority 2005, dated 2013).
Where a name gives a salt, the structure may show the parent alone.

The molecules below were run against T1, isolated kinase domain of the human FLT3 receptor (a.a. 571-993) (Homo sapiens, UniProt P36888) (assay: FLT3 fluorescence polarization kinase assay). Conditions: 150 uM ATP; uncertainty ±10%; read-out: Flt-3 IC50.
T1 construct: human FLT3 receptor (a.a. 571-993)
T1 sequence (P36888 571-993): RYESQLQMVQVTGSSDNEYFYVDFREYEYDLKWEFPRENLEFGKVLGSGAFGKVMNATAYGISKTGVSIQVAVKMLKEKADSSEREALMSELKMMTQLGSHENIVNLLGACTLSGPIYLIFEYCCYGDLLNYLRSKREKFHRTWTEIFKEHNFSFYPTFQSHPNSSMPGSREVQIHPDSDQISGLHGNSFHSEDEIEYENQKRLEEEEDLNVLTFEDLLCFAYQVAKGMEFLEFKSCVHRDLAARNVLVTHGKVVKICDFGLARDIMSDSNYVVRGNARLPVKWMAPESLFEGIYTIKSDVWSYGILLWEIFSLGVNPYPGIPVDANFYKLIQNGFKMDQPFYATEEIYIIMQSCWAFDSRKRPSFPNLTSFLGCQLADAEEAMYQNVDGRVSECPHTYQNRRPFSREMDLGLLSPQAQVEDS
Type: biochemical
Text: The FLT3 FP assay utilizes the fluorescein-labeled phosphopeptide and the anti-phosphotyrosine antibody included in the Panvera Phospho-Tyrosine Kinase Kit (Green) supplied by Invitrogen. When FLT3 phosphorylates polyGlu4Tyr, the fluorescein-labeled phosphopeptide is displaced from the anti-phosphotyrosine antibody by the phosphorylated poly Glu4Tyr, thus decreasing the FP value. […] The kinase reaction is stopped with the addition of EDTA. The fluorescein-labeled phosphopeptide and the anti-phosphotyrosine antibody are added and incubated for 30 minutes at room temperature.
Data points are an average of triplicate samples. Inhibition and IC50 data analysis was done with GraphPad Prism using a non-linear regression fit with a multiparamater, sigmoidal dose-response (variable slope) equation.

Structure (SMILES) | IC50 [µM]
CN1CCN(c2ccc(NC(=O)c3ccc(C#N)o3)c(C3=CCOCC3)c2)CC1 [Compound 12] | 1.24
N#Cc1c[nH]c(C(=O)Nc2ccc(C3CCNCC3)cc2C2=CCCCC2)c1 [Compound 13, 4-Cyano-1H-pyrrole-2-carboxylic acid (2-cyclohex-1-enyl-4-piperidin-4-yl-phenyl)-amide trifluoroacetic acid salt] | 0.034
CS(=O)(=O)CC(=O)N1CCC(c2ccc(NC(=O)c3nc(C#N)c[nH]3)c(C3=CCCCC3)c2)CC1 [Compound 20, 4-Cyano-1H-imidazole-2-carboxylic acid {2-cyclohex-1-enyl-4-[1-(2-methanesulfonyl-acetyl)-piperidin-4-yl]-phenyl}-amide] | 0.13
N#Cc1c[nH]c(C(=O)Nc2ccc(C3CCN(C(N)=O)CC3)cc2C2=CCCCC2)n1 [Compound 24, 4-{4-[(4-Cyano-1H-imidazole-2-carbonyl)-amino]-3-cyclohex-1-enyl-phenyl}-piperidine-1-carboxylic acid amide] | 0.37
N#Cc1c[nH]c(C(=O)Nc2ccc(C3CCNCC3)cc2C2=CCS(=O)(=O)CC2)n1 [Compound 36, 4-Cyano-1H-imidazole-2-carboxylic acid [2-(1,1-dioxo-1,2,3,6-tetrahydro-1λ6-thiopyran-4-yl)-4-piperidin-4-yl-phenyl]-amide trifluoroacetic acid salt] | 9.1
CC(=O)N1CCC(c2ccc(NC(=O)c3nc(C#N)c[nH]3)c(C3=CCCNC3)c2)CC1 [Compound 46, 4-Cyano-1H-imidazole-2-carboxylic acid [4-(1-acetyl-piperidin-4-yl)-2-(1,2,5,6-tetrahydro-pyridin-3-yl)-phenyl]-amide trifluoroacetic acid salt] | 0.039

The remaining lines, values ahead:

IC50 [µM] | Structure (SMILES)
0.26 | CN1CCN(c2ccc(NC(=O)c3ccc(C#N)o3)c(C3=CCCCC3)c2)CC1 [Compound 11, 5-Cyano-furan-2-carboxylic acid [2-cyclohex-1-enyl-4-(4-methyl-piperazin-1-yl)-phenyl]-amide]
0.14 | CC1(C)CC=C(c2nc(C3CCN(CCS(C)(=O)=O)CC3)ccc2NC(=O)c2nc(C#N)c[nH]2)CC1 [Compound 56, 4-Cyano-1H-imidazole-2-carboxylic acid [6-(4,4-dimethyl-cyclohex-1-enyl)-1′-(2-methanesulfonyl-ethyl)-1′,2′,3′,4′,5′,6′-hexhydro-[2,4]bipyridinyl-5-yl]-amide trifluoroacetic acid salt]
0.12 | N#Cc1c[nH]c(C(=O)Nc2ccc(C3CCS(=O)(=O)CC3)cc2C2=CCCCC2)n1 [Compound 35, 4-Cyano-1H-imidazole-2-carboxylic acid [2-cyclohex-1-enyl-4-(1,1-dioxo-hexahydro-1λ^6-thiopyran-4-yl)-phenyl]-amide]
0.097 | Cc1ccccc1-c1cc(N2CCN(C)CC2)ccc1NC(=O)c1ccc(C#N)o1 [Compound 9, 5-Cyano-furan-2-carboxylic acid [2′-methyl-5-(4-methyl-piperazin-1-yl)-biphenyl-2-yl]-amide]
0.082 | N#Cc1c[nH]c(C(=O)Nc2ccc(C3CCN(C(CO)CO)CC3)cc2C2=CCCCC2)n1 [Compound 6, 4-Cyano-1H-imidazole-2-carboxylic acid {2-cyclohex-1-enyl-4-[1-(2-hydroxy-1-hydroxymethyl-ethyl)-piperidin-4-yl]-phenyl}-amide trifluoroacetic acid salt]
0.053 | N#Cc1c[nH]c(C(=O)Nc2ccc(C3CCN(CCO)CC3)cc2C2=CCCCC2)n1 [Compound 26, 4-Cyano-1H-imidazole-2-carboxylic acid {2-cyclohex-1-enyl-4-[1-(2-hydroxy-ethyl)-piperidin-4-yl]-phenyl}-amide trifluoroacetic acid salt]
0.039 | CC(=O)N1CCC(c2ccc(NC(=O)c3nc(C#N)c[nH]3)c(C3=CCCCC3)c2)CC1 [Compound 16, 4-Cyano-1H-imidazole-2-carboxylic acid [4-(1-acetyl-piperidin-4-yl)-2-cyclohex-1-enyl-phenyl]-amide]
0.016 | Cn1ccnc1CN1CCC(c2ccc(NC(=O)c3nc(C#N)c[nH]3)c(C3=CCCC3)c2)CC1 [Compound 23, 4-Cyano-1H-imidazole-2-carboxylic acid {2-cyclopent-1-enyl-4-[1-(1-methyl-1H-imidazol-2-ylmethyl)-piperidin-4-yl]-phenyl}-amide trifluoroacetic acid salt]
0.013 | CC1CC=C(c2cc(C3CCNCC3)ccc2NC(=O)c2nc(C#N)c[nH]2)CC1 (centres unmarked) [Compound 17, 4-Cyano-1H-imidazole-2-carboxylic acid [2-(4-methyl-cyclohex-1-enyl)-4-piperidin-4-yl-phenyl]-amide trifluoroacetic acid salt]
0.0023 | C[C@@H]1CC(c2ccc(NC(=O)c3ncc(C#N)[nH]3)c(C3=CCCCC3)c2)C[C@H](C)N1 (stereo partly drawn) [Compound 51a, 5-Cyano-1H-imidazole-2-carboxylic acid [2-cyclohex-1-enyl-4-(cis-2,6-dimethyl-piperidin-4-yl)-phenyl]-amide bis trifluoroacetic acid salt]

What follows are molecules tested on MV4-11 cells (assay: Inhibition of MV4-11 cell proliferation (CellTiterGlo)). Conditions: Homo sapiens, 72 hours growth, uncertainty ±20%.
Type: cell-based
Protocol: To assess the cellular potency of compounds of the present invention, FLT3 specific growth inhibition was measured in the leukemic cell line MV4-11 (ATCC Number: CRL-9591). […] MV4-11 cells cannot grow and survive without active FLT3ITD.
To measure proliferation inhibition by compounds of the present invention, the luciferase based CellTiterGlo reagent (Promega), which quantifies total cell number based on total cellular ATP concentration, was used. Cells are plated at 10,000 cells per well in 100 ul of in RPMI media containing penn/strep, 10% FBS and 1 ng/ml GM-CSF or 1 ng/ml IL-3 for MV4-11 and Baf3 cells respectively.
Compound dilutions or 0.1% DMSO (vehicle control) are added to cells and the cells are allowed to grow for 72 hours at standard cell growth conditions (37° C., 5% CO2). For activity measurements in MV4-11 cells grown in 50% plasma, cells were plated at 10,000 cells per well in a 1:1 mixture of growth media and human plasma (final volume of 100 μL). To measure total cell growth an equal volume of CellTiterGlo reagent was added to each well, according to the manufacturer's instructions, and luminescence was quantified. Total cell growth was quantified as the difference in luminescent counts (relative light units, RLU) of cell number at Day 0 compared to total cell number at Day 3 (72 hours of growth and/or compound treatment). One hundred percent inhibition of growth is defined as an RLU equivalent to the Day 0 reading. Zero percent inhibition was defined as the RLU signal for the DMSO vehicle control at Day 3 of growth.
Data points are an average of triplicate samples. […] Inhibition and IC50 data analysis was done with GraphPad Prism using a non-linear regression fit with a multiparamater, sigmoidal dose-response (variable slope) equation. MV4-11 cells express the FLT3 internal tandem duplication mutation, and thus are entirely dependent upon FLT3 activity for growth. […] In contrast, the Baf3 cell proliferation is driven by the cytokine IL-3 and thus is used as a non-specific toxicity control.

Structure (SMILES) | IC50 [µM]
N#Cc1c[nH]c(C(=O)Nc2ccc(C3CCN(CCN4CCOCC4)CC3)cc2C2=CCCCC2)n1 [Compound 34, 4-Cyano-1H-imidazole-2-carboxylic acid {2-cyclohex-1-enyl-4-[1-(2-morpholin-4-yl-ethyl)-piperidin-4-yl]-phenyl}-amide di-trifluoroacetic acid salt] | 0.008
N#Cc1c[nH]c(C(=O)Nc2ccc(C3CCNCC3)cc2C2=CCS(=O)(=O)CC2)n1 [Compound 36, 4-Cyano-1H-imidazole-2-carboxylic acid [2-(1,1-dioxo-1,2,3,6-tetrahydro-1λ6-thiopyran-4-yl)-4-piperidin-4-yl-phenyl]-amide trifluoroacetic acid salt] | 0.192
CS(=O)(=O)CCN1CCC(c2ccc(NC(=O)c3nc(C#N)c[nH]3)c(C3=CCCCC3)c2)CC1 [Compound 40, 4-Cyano-1H-imidazole-2-carboxylic acid {2-cyclohex-1-enyl-4-[1-(2-methanesulfonyl-ethyl)-piperidin-4-yl]-phenyl}-amide] | 0.116

The molecules below were run against T2, wild-type FLT3 phosphorylation in Baf3 FLT3 cells (Homo sapiens, UniProt P36888) (assay: Cell-based FLT3 receptor ELISA). Conditions: uncertainty ±20%.
T2 construct: host or cells: Baf3 (murine B cell lymphoma line)
T2 sequence (P36888 27-993): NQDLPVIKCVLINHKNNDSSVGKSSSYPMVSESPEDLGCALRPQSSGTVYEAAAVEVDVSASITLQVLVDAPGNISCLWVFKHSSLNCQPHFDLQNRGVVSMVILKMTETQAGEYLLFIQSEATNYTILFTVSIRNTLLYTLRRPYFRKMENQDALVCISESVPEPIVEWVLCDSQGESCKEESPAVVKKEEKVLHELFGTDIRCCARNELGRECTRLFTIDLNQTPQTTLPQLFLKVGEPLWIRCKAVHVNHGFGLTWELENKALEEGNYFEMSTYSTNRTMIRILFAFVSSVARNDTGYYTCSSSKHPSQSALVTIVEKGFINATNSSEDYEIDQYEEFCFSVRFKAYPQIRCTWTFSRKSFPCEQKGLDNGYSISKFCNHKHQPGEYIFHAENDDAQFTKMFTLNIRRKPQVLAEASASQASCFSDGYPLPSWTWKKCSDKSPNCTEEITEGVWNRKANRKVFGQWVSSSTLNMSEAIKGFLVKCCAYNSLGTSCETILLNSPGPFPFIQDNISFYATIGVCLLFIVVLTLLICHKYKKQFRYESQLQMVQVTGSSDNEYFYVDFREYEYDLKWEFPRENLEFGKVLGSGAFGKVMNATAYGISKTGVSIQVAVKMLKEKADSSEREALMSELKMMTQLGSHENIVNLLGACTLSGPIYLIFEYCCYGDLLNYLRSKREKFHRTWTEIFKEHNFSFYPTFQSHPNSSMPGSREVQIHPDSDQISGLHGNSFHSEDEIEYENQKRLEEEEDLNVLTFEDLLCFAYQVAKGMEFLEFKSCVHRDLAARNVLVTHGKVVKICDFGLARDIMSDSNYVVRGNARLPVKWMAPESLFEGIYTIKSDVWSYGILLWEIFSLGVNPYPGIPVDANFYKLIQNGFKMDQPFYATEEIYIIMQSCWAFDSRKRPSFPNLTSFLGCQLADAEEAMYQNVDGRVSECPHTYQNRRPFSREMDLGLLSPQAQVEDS
Text: Data points are an average of triplicate samples. […] Leukemia.

IC50 [µM] | Structure (SMILES)
1.3 | CN1CCN(c2ccc(NC(=O)c3ccc(C#N)o3)c(C3=CCCCC3)c2)CC1 [Compound 11, 5-Cyano-furan-2-carboxylic acid [2-cyclohex-1-enyl-4-(4-methyl-piperazin-1-yl)-phenyl]-amide]
